Results published in PubChem BioAssay AID1918947 (Molecular Pharmacology Branch, DTP, NCI, 2023).
pIC50: −log10 of the molar value.

Tested on: A498 complex spheroid viability
Assay: Anticancer human tumor A498 cell line growth inhibition;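 also: spheroids exposed to agents for seven days before readout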;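 as to viability, T/C: 100% = DMSO vehicle-treated spheroids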
Details: for pIC50: curve of first compound; for viability, T/C: stronger effect = lower value
Method in brief: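 Drug combinations with the LSD1 inhibitor iadademstat tested on tumor cells co-cultured as spheroids with endothelial cells and mesenchymal stem cells. Concentrations descended in half-log increments from clinical Cmax or 10 microM.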

Nc1ncn(C2CC(O)C(CO)S2)c(=O)n1 (stereo not given) + NC1CC1c1ccc(-c2cccc(O)c2)cc1
pIC50 (second compound 0.1 µM): 6.59
pIC50 (second compound 0.316 µM): 6.60
pIC50 (second compound 1 µM): 6.59
pIC50 (second compound 3.16 µM): 6.63
pIC50 (second compound 10 µM): 6.59
viability, T/C (second compound 0.1 µM, first compound 0.000949 µM): 110%
viability, T/C (second compound 0.1 µM, first compound 0.003 µM): 116%
viability, T/C (second compound 0.1 µM, first compound 0.00949 µM): 115%
viability, T/C (second compound 0.1 µM, first compound 0.03 µM): 95.4%
viability, T/C (second compound 0.1 µM, first compound 0.0949 µM): 74.7%
viability, T/C (second compound 0.1 µM, first compound 0.3 µM): 45.9%
viability, T/C (second compound 0.316 µM, first compound 0.000949 µM): 114%
viability, T/C (second compound 0.316 µM, first compound 0.003 µM): 121%
viability, T/C (second compound 0.316 µM, first compound 0.00949 µM): 116%
viability, T/C (second compound 0.316 µM, first compound 0.03 µM): 104%
viability, T/C (second compound 0.316 µM, first compound 0.0949 µM): 81.9%
viability, T/C (second compound 0.316 µM, first compound 0.3 µM): 44.6%
viability, T/C (second compound 1 µM, first compound 0.000949 µM): 118%
viability, T/C (second compound 1 µM, first compound 0.003 µM): 123%
viability, T/C (second compound 1 µM, first compound 0.00949 µM): 119%
viability, T/C (second compound 1 µM, first compound 0.03 µM): 105%
viability, T/C (second compound 1 µM, first compound 0.0949 µM): 81.8%
viability, T/C (second compound 1 µM, first compound 0.3 µM): 44.8%
viability, T/C (second compound 3.16 µM, first compound 0.000949 µM): 114%
viability, T/C (second compound 3.16 µM, first compound 0.003 µM): 106%
viability, T/C (second compound 3.16 µM, first compound 0.00949 µM): 125%
viability, T/C (second compound 3.16 µM, first compound 0.03 µM): 109%
viability, T/C (second compound 3.16 µM, first compound 0.0949 µM): 78.7%
viability, T/C (second compound 3.16 µM, first compound 0.3 µM): 42.5%
viability, T/C (second compound 10 µM, first compound 0.000949 µM): 104%
viability, T/C (second compound 10 µM, first compound 0.003 µM): 110%
viability, T/C (second compound 10 µM, first compound 0.00949 µM): 118%
viability, T/C (second compound 10 µM, first compound 0.03 µM): 105%
viability, T/C (second compound 10 µM, first compound 0.0949 µM): 87.9%
viability, T/C (second compound 10 µM, first compound 0.3 µM): 44.5%
